Assay results published in article PMC4778918, “Signal Transduction at the Domain Interface of Prokaryotic Pentameric Ligand-Gated Ion Channels” (PLoS Biology, 2016).
“And” between values parts separate entries of the source, which are not always exact repeats. Equal entries are not always repeated. Where two headings read alike, the source gives them in different places.

What was measured:
[1] = target: ELIC R91A/F116A (Dickeya chrysanthemi, UniProt P0C7B7, F116A/R91A); test: biochemical; type: binding, Erwinia chrisanthemi; conditions: read-out: Keff
[2] = target: T1, ELIC T28D (Dickeya chrysanthemi, UniProt P0C7B7, INS163G/T28D); test: biochemical; type: binding, Erwinia chrisanthemi; conditions: ITC
[3] = target: ELIC R91A (Dickeya chrysanthemi, UniProt P0C7B7, INS163G/R91A); test: biochemical; type: binding, Erwinia chrisanthemi; conditions: read-out: Keff
[4] = target: ELIC R91A/Y258A (Dickeya chrysanthemi, UniProt P0C7B7, R91A/Y257A); test: biochemical; type: binding, Erwinia chrisanthemi; conditions: read-out: Keff
[5] = target: ELIC T28A (Dickeya chrysanthemi, UniProt P0C7B7, INS163G/T28A); type: cell-based, Erwinia chrisanthemi; conditions: for I/Imax mean: ELIC T28A, 0.5 mM Ca2+, mean of 4 oocytes
From the text: (§1) X. laevis oocytes were obtained either from Ecocyte or from an in-house facility. Animal procedures and preparation of oocytes followed standard procedures and were in accordance with the Swiss Cantonal and Federal legislation relating to animal experimentation. Plasmid DNA containing the genes coding for the respective constructs for expression in X. laevis oocytes were linearized by MluI, and capped mRNA was transcribed with the mMessage mMachine kit (Ambion) and purified with the RNeasy kit (Qiagen). 10–200 ng of mRNA was injected into defolliculated X. laevis oocytes, which were subsequently incubated in Barth’s solution (88 mM NaCl, 1 mM KCl, 1 mM CaCl2, 0.33 mM Ca(NO3)2, 0.82 mM MgSO4, 10 mM Na-Hepes (pH 7.4) and 50 μg / ml Gentamycin) and stored at 16°C. One to three days after injection, two-electrode voltage clamp measurements were performed at 20°C (OC-725B, Warner Instrument Corp.). For ELIC, maximal currents were recorded in a bath solution containing 10 mM Hepes (pH 7), 130 mM NaCl, 2 mM KCl, 0.5 mM CaCl2 and either 5 mM or 25 mM Cysteamine. […] Dose-response experiments were carried out at agonist concentrations indicated in the respective figures. Voltage was clamped at −40 mV, and data was filtered at 20 Hz unless stated otherwise.

[6] = target: ELIC ΔL29 (Dickeya chrysanthemi, UniProt P0C7B7, DEL29-29/INS163G); type: cell-based, Erwinia chrisanthemi; conditions: ELIC woL29 (deletion of Leu29), 0.5 mM Ca2+, mean of 4 oocytes
From the text: as §1

[7] = target: T2, ELIC WT (Dickeya chrysanthemi, UniProt P0C7B7, INS163G); test: Two-electrode voltage clamp dose-response, ELIC WT in X. laevis oocytes; type: cell-based, Erwinia chrisanthemi; conditions: 0.5 mM Ca2+, mean of 4 oocytes
From the text: X. laevis oocytes were obtained either from Ecocyte or from an in-house facility. Animal procedures and preparation of oocytes followed standard procedures and were in accordance with the Swiss Cantonal and Federal legislation relating to animal experimentation. Plasmid DNA containing the genes coding for the respective constructs for expression in X. laevis oocytes were linearized by MluI, and capped mRNA was transcribed with the mMessage mMachine kit (Ambion) and purified with the RNeasy kit (Qiagen). 10–200 ng of mRNA was injected into defolliculated X. laevis oocytes, which were subsequently incubated in Barth’s solution (88 mM NaCl, 1 mM KCl, 1 mM CaCl2, 0.33 mM Ca(NO3)2, 0.82 mM MgSO4, 10 mM Na-Hepes (pH 7.4) and 50 μg / ml Gentamycin) and stored at 16°C. One to three days after injection, two-electrode voltage clamp measurements were performed at 20°C (OC-725B, Warner Instrument Corp.). For ELIC, maximal currents were recorded in a bath solution containing 10 mM Hepes (pH 7), 130 mM NaCl, 2 mM KCl, 0.5 mM CaCl2 and either 5 mM or 25 mM Cysteamine. For GLIC, the maximal currents were recorded in a bath solution containing 10 mM Citrate (pH 4), 130 mM NaCl, 2 mM KCl, 1.8 mM CaCl2 and 1 mM MgCl2. Dose-response experiments were carried out at agonist concentrations indicated in the respective figures. Voltage was clamped at −40 mV, and data was filtered at 20 Hz unless stated otherwise. Surface expression in constructs containing an HA-tag was assayed after electrophysiological characterization as described. For that purpose, the oocytes were placed in a 96-well plate (TPP) and incubated in ND96 solution (93.5 mM NaCl, 2 mM KCl, 1.8 mM CaCl2, 2 mM MgCl2 and 10 mM Hepes, pH 7.4) containing 1% BSA for at least 30 min. All steps were carried out at 4°C with the same buffer unless mentioned otherwise. Oocytes were subsequently transferred into buffer containing 1 μg/ml rat monoclonal anti-HA antibody (3F10, Roche) for 1 h, washed 3 times and incubated with buffer containing 0.16 μg/ml horseradish peroxidase (HRP) coupled to a secondary antibody (HRP-conjugated goat anti-rat F(Ab)2 fragments, Jackson) for 30–60 min. The oocytes were washed 5 times with ND96 solution and subsequently transferred to a white 96-well plate (flat bottom, Nunclon Delta Surface). The solution was aspirated, 30 μl of Super Signal ELISA femto solutions 1 and 2 (Pierce) was added, and luminescence was quantitated with a Tecan infinite M1000 plate reader.

[8] = target: ELIC P254A (Dickeya chrysanthemi, UniProt P0C7B7, P253A); type: cell-based, Erwinia chrisanthemi
From the text: as §1

[9] = target: T1, ELIC T28D; type: cell-based, Erwinia chrisanthemi; conditions: 0.5 mM Ca2+, mean of 5 oocytes
From the text: as §1

[10] = target: ELIC L29A (Dickeya chrysanthemi, UniProt P0C7B7, INS163G/L29A); type: cell-based, Erwinia chrisanthemi; conditions: 0.5 mM Ca2+, mean of 3 oocytes
From the text: as §1

[11] = target: T2, ELIC WT; test: biochemical; type: binding, Erwinia chrisanthemi
[12] = test system: ELIC; design: method as in PMID 21713033; conditions: two-electrode voltage clamp recordings, ELIC WT, in the absence of Ca2+; cited from earlier work
[13] = target: ELIC resting state; conditions: kinetic analysis of single channel recordings of ELIC; read-out: dissociation constant to the resting state; cited from earlier work
[14] = target: ELIC ligand binding site mutant R91A; test: SEC
[15] = target: ELIC double mutant R91A/Y258A; test: SEC
[16] = target: the molecule itself; test: SEC; gel filtration on Superdex 200 at 4°C in buffer with 0.145% UDM after removal of His10-MBP; pentamer peak pooled for ITC
[17] = target: the molecule itself; test: SEC

CC(=O)OCC[N+](C)(C)C [acetylcholine]
Kd [1]: 1.8 mM | binding of the antagonist compared to WT ([2]; ELIC T28D versus WT): unchanged | Kd [3]: 1.4 mM | Kd [4]: 2 mM

NCCS [cysteamine]
EC50 higher than WT ([5]; ELIC T28A versus WT, two-electrode voltage clamp): 3.5 fold | I/Imax mean ([5]; conc cys. 1.00 (mM)): 0.0138 | I/Imax mean ([5]; conc cys. 2.50 (mM)): 0.34 | I/Imax mean ([5]; conc cys. 5.00 (mM)): 0.56 | I/Imax mean ([5]; conc cys. 10.00 (mM)): 0.83 | I/Imax mean ([5]; conc cys. 25.00 (mM)): 1.00 | I/Imax mean ([6]; conc cys. 0.25 (mM)): 0.10 | I/Imax mean ([6]; conc cys. 0.5 (mM)): 0.43 | I/Imax mean ([6]; conc cys. 0.75 (mM)): 0.64 | I/Imax mean ([6]; conc cys. 1 (mM)): 0.86 | I/Imax mean ([6]; conc cys. 2.5 (mM)): 1.00 | I/Imax mean ([7]; conc cys. 0.1 (mM)): 0.00 | I/Imax mean ([7]; conc cys. 0.25 (mM)): 0.00655 | I/Imax mean ([7]; conc cys. 0.5 (mM)): 0.09 | I/Imax mean ([7]; conc cys. 0.75 (mM)): 0.32 | I/Imax mean ([7]; conc cys. 1 (mM)): 0.54 | I/Imax mean ([7]; conc cys. 5 (mM)): 1.00 | I/Imax mean ([8]; conc cys. 0.25 (unit not given)): 0.0189 | I/Imax mean ([8]; conc cys. 0.5 (unit not given)): 0.14 | I/Imax, single oocyte ([8]; conc cys. 0.5 (unit not given), listed as cys.): 0.13 and 0.12 and 0.19 | I/Imax mean ([8]; conc cys. 0.75 (unit not given)): 0.41 | I/Imax, single oocyte ([8]; conc cys. 0.75 (unit not given), listed as cys.): 0.33 and 0.45 and 0.39 and 0.42 | I/Imax mean ([8]; conc cys. 1 (unit not given)): 0.51 | I/Imax, single oocyte ([8]; conc cys. 1 (unit not given), listed as cys.): 0.42 and 0.56 and 0.47 | I/Imax mean ([8]; conc cys. 2.5 (unit not given)): 0.90 | I/Imax, single oocyte ([8]; conc cys. 2.5 (unit not given), listed as cys.): 0.82 and 0.97 and 0.85 and 0.95 and 0.92 | I/Imax mean ([8]; conc cys. 5 (unit not given)): 1.00 | I/Imax, single oocyte ([8]; conc cys. 5 (unit not given)): 1.00 | I/Imax mean ([9]; conc cys. 0.01 (mM)): 0.13 | I/Imax mean ([9]; conc cys. 0.025 (mM)): 0.63 | I/Imax mean ([9]; conc cys. 0.05 (mM)): 0.96 | I/Imax mean ([9]; conc cys. 0.1 (mM)): 1.00 | I/Imax mean ([10]; conc cys. 0.1 (mM)): 0.16 | I/Imax mean ([10]; conc cys. 0.25 (mM)): 0.69 | I/Imax mean ([10]; conc cys. 0.35 (mM)): 0.79 | I/Imax mean ([10]; conc cys. 0.5 (mM)): 0.88 | I/Imax mean ([10]; conc cys. 0.75 (mM)): 1.00

CCCN [propylamine]
Kd ([1]; ITC, ELIC double mutant R91A/F116A, 4°C): 0.8 mM | Keff (ITC) higher than EC50 (two-electrode voltage clamp) [11]: about 20 fold | Kd ([11]; ITC, ELIC WT in detergent (UDM), 4°C, single-site isotherm, read-out: effective dissociation constant (Keff)): 8 mM | decrease in Keff concentration compared to WT ([2]; ELIC T28D versus WT): 90 fold | Kd ([2]; ELIC mutant T28D, agonist, read-out: Keff): 0.09 mM | Kd ([3]; ITC, ELIC ligand binding site mutant R91A, 4°C): 1.1 mM | EC50 [12]: 0.45 mM | Kd ([4]; ITC, ELIC double mutant R91A/Y258A, 4°C): 0.9 mM | Kd [13]: 7.1 mM

ELIC ligand binding site mutant R91A (receptor)
stoichiometry N [14]: 5

ELIC double mutant R91A/Y258A (receptor)
stoichiometry N [15]: 5

B1: ELIC wild type (receptor)
chain: APADNAADARPVDVSVSIFINKIYGVNTLEQTYKVDGYIVAQWTGKPRKTPGDKPLIVENTQIERWINNGLWVPALEFINVVGSPDTGNKRLMLFPDGRVIYNARFLGSFSNDMDFRLFPFDRQQFVLELEPFSYNNQQLRFSDIQVYTENIDNEEIDEWWIRKASTHISDIRYDHLSSVQPNQNEFSRITVRIDAVRNPSYYLWSFILPLGLIIAASWSVFWLESFSERLQTSFTLMLTVVAYAFYTSNILPRLPYTTVIDQMIIAGYGSIFAAILLIIFAHHRQAMGVEDDLLIQRCRLAFPLGFLAIGCVLVIRGITL
notes: ELIC, prokaryotic pentameric ligand-gated ion channel; GenBank WP_013319743 printed; Homopentamer; purified for ITC with small-molecule ligands; also called ELIC WT; source: E. coli BL21-DE3, purified (extracted in UDM, Ni-NTA, HRV 3C cleavage, Superdex 200 gel filtration); not shown: His10, N-terminal, cleaved
stoichiometry N [16]: 5

B2: ELIC double mutant R91A/F116A (receptor)
chain: APADNAADARPVDVSVSIFINKIYGVNTLEQTYKVDGYIVAQWTGKPRKTPGDKPLIVENTQIERWINNGLWVPALEFINVVGSPDTGNKALMLFPDGRVIYNARFLGSFSNDMDARLFPFDRQQFVLELEPFSYNNQQLRFSDIQVYTENIDNEEIDEWWIRKASTHISDIRYDHLSSVQPNQNEFSRITVRIDAVRNPSYYLWSFILPLGLIIAASWSVFWLESFSERLQTSFTLMLTVVAYAFYTSNILPRLPYTTVIDQMIIAGYGSIFAAILLIIFAHHRQAMGVEDDLLIQRCRLAFPLGFLAIGCVLVIRGITL
notes: source: E. coli BL21-DE3, purified (extracted in UDM, Ni-NTA, HRV 3C cleavage, Superdex 200 gel filtration)
stoichiometry N [17]: 5
